{
  "source": "patent US10973912B2",
  "about": "“Treatment for myopathy” (Children's Medical Center Corporation, priority 2015, dated 2021)",
  "tested_on": "ryr1b skeletal muscles",
  "assay": "Tetanic force per cross-sectional area in larvae at 5 dpf",
  "format": "in vivo, zebrafish (Danio rerio)",
  "description": "Tetanic forces were measured following stimulation with 9 biphasic, 200 μs square-wave pulses at 300 Hz (WT-DMSO: 45.6±4.2 kPa, n=5; WT-NIF: 52.8±4.1 kPa, n=5; ryr1b-DMSO: 11.4±1.3 kPa, n=7; ryr1b-NIF: 25.4±4.0 kPa, n=7). Significance was determined by a one-way ANOVA (F=29.61, P<0.0001), followed by pairwise Tukey's HSD post hoc tests. […] Non-linear regression data of curves were not statistically different, as determined by an extra sum-of-squares F test (P=1.0).\nRyr1b mutants display weaker muscle contractions than wild-type clutchmates as early as 2 dpf^30. To investigate whether […] affects contractile strength in zebrafish, ryr1b mutants and unaffected controls were treated with the compound for several days. At 5 dpf, electrophysiological studies were performed with the help of Dr. Jeffrey Widrick.",
  "data": [
    {"smiles": "O=C(N/N=C/c1ccc([N+](=O)[O-])o1)c1ccc(O)cc1", "note": "[Nifuroxazide]", "values": [
      {"measurement": "tetanic forces in treated mutants", "value": "restored to wild-type levels"},
      {"measurement": "tetanic force per cross-sectional area, ryr1b mutants", "setting": "ryr1b, n=7, 9 biphasic 200 μs pulses at 300 Hz, ryr1b-DMSO 11.4±1.3, WT-DMSO 45.6±4.2", "value": "25.4±4.0", "unit": "kPa"}
    ]}
  ]
}
